Converted amounts (≈) assume the structure as drawn.
conditions: buffer; pH 7.4; 200.0 µM

`S=P(N1CC1)(N1CC1)N1CC1` and `CN1CCN(c2ccc(C(F)(F)F)cc2N)CC1` cannot be ordered by solubility kinetic: > 28.4 µg/mL for the first, > 38.9 µg/mL for the second.

`O=C(COC(=O)c1cccnc1Cl)NC1CCCc2ccccc21` (stereo unspecified) and `Cc1ccccc1C(=O)OCC(=O)N(C)c1ccccc1` cannot be ordered by solubility kinetic: > 51.7 µg/mL for the first, > 42.5 µg/mL for the second.

Going from `Cc1nn(CC(=O)NC2(C)CCS(=O)(=O)C2)c(C)c1S(=O)(=O)N(C)C` (stereo unspecified) to `CC(NC(=O)c1cccc(S(=O)(=O)N(C)C)c1)C1CC2CCC1C2` (stereo unspecified), the solubility kinetic falls from > 58.9 µg/mL to 15.5 µg/mL (≈ 44.2 µM).

First: CCN(CC(=O)Nc1c(F)cccc1F)C(=O)C1CC1
Second: O=C(COC(=O)c1cccc(Br)c1)NCC1CCCO1 (stereo unspecified)
The solubility kinetic of the first is lower: 40.7 µg/mL (≈ 144 µM) for the first, > 51.3 µg/mL for the second.

Going from `COCCNc1cnn(-c2ccccc2)c(=O)c1Cl` to `COCCCNc1nc(N)c([N+](=O)[O-])c(NCc2ccccc2)n1`, the solubility kinetic falls from > 42 µg/mL to 7.4 µg/mL (≈ 22.3 µM).

First: COc1ccccc1N1C(=O)S/C(=C\c2ccc(C)s2)C1=O
Second: COc1ccc(-c2cc(=O)oc(-c3cccc(C)c3)n2)cc1
The solubility kinetic of the first is lower: < 0.7 µg/mL for the first, 1.1 µg/mL (≈ 3.75 µM) for the second.

`COc1ccc(OC)c(NC(=S)N2CCCC2)c1` and `CC(=O)c1cccc(NC(=S)N2CCCC2)c1` cannot be ordered by solubility kinetic: > 40 µg/mL for the first, > 37.3 µg/mL for the second.

Compared with `CN1CCN(S(=O)(=O)c2ccc(NC(=O)c3ccc([N+](=O)[O-])cc3)cc2)CC1`, `O=C(Nc1nccs1)C1CCN(S(=O)(=O)c2ccccc2)CC1` is 8.9-fold higher in solubility kinetic: 4.9 µg/mL (≈ 12.1 µM) for the first, 43.7 µg/mL (≈ 124 µM) for the second.

Going from `Cn1cccc1C(=O)NC(=O)COC(=O)c1ccc(S(C)(=O)=O)c([N+](=O)[O-])c1` to `CCNC(=O)c1ccc(N(C)S(=O)(=O)c2cccs2)cc1`, the solubility kinetic rises from 14.7 µg/mL (≈ 35.9 µM) to > 48.7 µg/mL.

`CC(OC(=O)CN1C(=O)c2ccccc2C1=O)C(=O)NC1CCCC1` (stereo unspecified) and `CN(C(=O)COC(=O)CCC(=O)c1ccc(F)cc1)C1CCCCC1` cannot be ordered by solubility kinetic: > 51.7 µg/mL for the first, > 52.4 µg/mL for the second.

First: CNCCc1ccc(O)c(O)c1.Cl
Second: COc1ccc(CCNC(=O)c2cccs2)cc1
The solubility kinetic of the first is 2.3-fold lower: 17.2 µg/mL for the first, 38.7 µg/mL (≈ 148 µM) for the second.

`COc1ccc(S(=O)(=O)NCCN2CCNC2=O)cc1OC` and `COc1ccc(CCNC(=O)c2cc(C3CC3)on2)cc1OC` cannot be ordered by solubility kinetic: 47.9 µg/mL (≈ 145 µM) for the first, > 47.5 µg/mL for the second.

Compared with `CC#C[C@]1(O)CC[C@H]2[C@@H]3CCC4=CC(=O)CCC4=C3[C@@H](c3ccc(N(C)C)cc3)C[C@@]21C`, `CC(=O)NC1CC2CCCC(C1)N2Cc1ccc(C)cc1` (stereo unspecified) is higher in solubility kinetic: 7 µg/mL (≈ 16.3 µM) for the first, > 43 µg/mL for the second.

Compared with `Cc1nc(N2CCOCC2)nc(Oc2ccccc2)c1[N+](=O)[O-]`, `CS(=O)(=O)N1CCc2nc(-c3ccccc3)sc2C1` is 1.8-fold higher in solubility kinetic: 5.8 µg/mL (≈ 18.3 µM) for the first, 10.4 µg/mL (≈ 35.3 µM) for the second.

Going from `COc1ccc(C)cc1NC(=S)N1CCN(c2ncccn2)CC1` to `COc1ccc(C)cc1NC(=O)Nc1ccncc1`, the solubility kinetic falls from 47.4 µg/mL (≈ 138 µM) to 4.6 µg/mL (≈ 17.9 µM) (10-fold).

First: CC1(C)Cc2c(C#N)c(N)n(-c3ccccc3)c(=S)c2CO1
Second: Cc1nc(N)ncc1Sc1ccccc1
The solubility kinetic of the first is higher: > 46.7 µg/mL for the first, 5.2 µg/mL (≈ 23.9 µM) for the second.

`CCOc1cc(NC(=O)CCl)c(OCC)cc1NC(=O)CCl` and `CCOc1ccccc1NC(=O)COc1cccnc1[N+](=O)[O-]` are within 1.5-fold of each other in solubility kinetic: 6.8 µg/mL (≈ 19.5 µM) for the first, 7.5 µg/mL (≈ 23.6 µM) for the second.

Compared with `CCS(=O)(=O)c1ncc(CO)n1CCc1ccccc1`, `CC(=O)c1nc2ccccc2n1Cc1ccccc1` is lower in solubility kinetic: > 44.2 µg/mL for the first, 14.5 µg/mL (≈ 57.9 µM) for the second.

First: COc1ccc(C(C)=O)cc1CSc1ccccn1
Second: O=C(NCc1ccccn1)Nc1ccc(F)cc1F
The solubility kinetic of the first is lower: 37.7 µg/mL (≈ 138 µM) for the first, > 39.5 µg/mL for the second.

First: Cc1cccc(-c2nc(C#N)c(N3CCCCC3)o2)c1
Second: Nc1cc(S(=O)(=O)Nc2ccccc2Cl)ccc1N1CCCCC1
The solubility kinetic of the first is 33-fold lower: 0.4 µg/mL (≈ 1.5 µM) for the first, 13.2 µg/mL (≈ 36.1 µM) for the second.

`CC(C)[N+](C)(CCOC(=O)C1c2ccccc2Oc2ccccc21)C(C)C.[Br-]` and `CC(Oc1ccccc1)C(=O)Nc1cccc([N+](=O)[O-])c1` (stereo unspecified) cannot be ordered by solubility kinetic: > 67.3 µg/mL for the first, > 42.9 µg/mL for the second.

First: O=C(Nc1ccc(Br)cc1)Nc1cnccn1
Second: CCC(C)c1ccc(NC(=O)Nc2cccnc2)cc1 (stereo unspecified)
The solubility kinetic of the first is 11-fold lower: 3 µg/mL (≈ 10.2 µM) for the first, 33.2 µg/mL (≈ 123 µM) for the second.

`O=C(Cn1cnc([N+](=O)[O-])n1)NC1CC1` and `CC1CCCC(C)N1C(=O)COc1ccc([N+](=O)[O-])cc1Cl` (stereo unspecified) cannot be ordered by solubility kinetic: > 31.7 µg/mL for the first, > 49 µg/mL for the second.

`O=Cc1ccc(Oc2nc(Cl)ncc2F)cc1` and `CCOc1ccc(/C=C(\C)C(=O)c2c(C)cc(C)[nH]c2=O)cc1` are within 1.5-fold of each other in solubility kinetic: 36.8 µg/mL (≈ 146 µM) for the first, 38.3 µg/mL (≈ 123 µM) for the second.

`OC1(c2ccc(F)cc2)CCN(Cc2cccnc2)CC1` and `O=C(Nc1ccc(F)cc1)c1cccnn1` cannot be ordered by solubility kinetic: > 43 µg/mL for the first, > 32.6 µg/mL for the second.

Going from `CCCCOC(=O)c1sc2nc(C)cc(C)c2c1N` to `Cc1ccsc1C(=O)OCC(=O)NCc1ccco1`, the solubility kinetic rises from 0.6 µg/mL (≈ 2.16 µM) to 41.1 µg/mL (≈ 147 µM) (68-fold).

`Cc1[nH]c(=O)c(C#N)c(C)c1[N+](=O)[O-]` and `Cc1cc(C)nc(N(C#N)Cc2ccc(Cl)cc2)n1` are within 1.5-fold of each other in solubility kinetic: 27.3 µg/mL (≈ 141 µM) for the first, 21.7 µg/mL (≈ 79.6 µM) for the second.

`CC(C)(C)OC(=O)NCCc1n[nH]c(=S)o1` and `COc1ccc(CCNC(=O)CCc2ccsc2)cc1OC` cannot be ordered by solubility kinetic: > 36.8 µg/mL for the first, > 47.9 µg/mL for the second.

First: O=C(NC1C2CC3CC(C2)CC1C3)c1ccc2c(c1)OCO2 (stereo unspecified)
Second: CSc1ncccc1C(=O)Nc1ccc2c(c1)OCO2
The solubility kinetic of the first is 3.9-fold lower: 7.9 µg/mL (≈ 26.4 µM) for the first, 30.8 µg/mL (≈ 107 µM) for the second.

`Cc1nc2ccc(NS(=O)(=O)c3ccc(F)cc3)cc2s1` and `COc1cccc(S(=O)(=O)Nc2cccc(C(=O)N3CCCC3)c2)c1` are within 1.5-fold of each other in solubility kinetic: 44.3 µg/mL (≈ 137 µM) for the first, 47.9 µg/mL (≈ 133 µM) for the second.

Going from `COc1cccc(C(CNC(=O)c2ccc(Cl)c(S(=O)(=O)N3CCCC3)c2)N(C)C)c1` (stereo unspecified) to `CC(=O)Nc1ccc(S(=O)(=O)N(C)CC(=O)OCC(=O)N2CCCCCC2)cc1`, the solubility kinetic falls from > 69.9 µg/mL to 60.3 µg/mL (≈ 142 µM).

`Cc1cc(C)n2nc(SC(C)C(=O)N3CC(C)OC(C)C3)nc2n1` (stereo unspecified) and `COc1cc(-n2c(C)nc3cccnc32)c(Cl)cc1C(=O)O` cannot be ordered by solubility kinetic: > 52.4 µg/mL for the first, > 47.7 µg/mL for the second.

Going from `CCN(C(=O)CSc1ncccn1)c1cccc2ccccc12` to `Cc1cccc(C(=O)O/N=C(\N)Cc2cccc3ccccc23)c1`, the solubility kinetic falls from > 48.5 µg/mL to 2.3 µg/mL (≈ 7.22 µM).

`CCc1ccc(N2CC(C(=O)NCCC3=CCCCC3)CC2=O)cc1` (stereo unspecified) and `COc1ccc(NC(=O)CC(C)CC(=O)NCc2ccc(F)cc2)c(OC)c1` (stereo unspecified) are the same in solubility kinetic: 6.8 µg/mL (≈ 20 µM) for the first, 6.8 µg/mL (≈ 17.5 µM) for the second.

Going from `Cc1cnc(=O)[nH]c1SCC(=O)Nc1nccs1` to `O=C(CCn1cnc2ccccc2c1=O)Nc1cccc(Cl)c1Cl`, the solubility kinetic falls from 31 µg/mL (≈ 110 µM) to 3.8 µg/mL (≈ 10.5 µM) (8.2-fold).

`O=C(O)c1nn(-c2cccc(C(F)(F)F)c2)ccc1=O` and `O=C(O)CC1SC(=Nc2ccc(O)cc2)NC1=O` (stereo unspecified) cannot be ordered by solubility kinetic: > 42.6 µg/mL for the first, > 39.9 µg/mL for the second.

`CNC(=S)Nc1ccc2[nH]c(=O)[nH]c2c1` and `O=S(=O)(NC1=NCCC1)c1cccc(NC(=S)Nc2ccc(OC(F)F)cc2)c1` cannot be ordered by solubility kinetic: > 33.3 µg/mL for the first, > 66.1 µg/mL for the second.

`COC(=O)C(Cc1ccc(O)cc1)NC(=O)c1ccc2c(c1)OCCO2` (stereo unspecified) and `CN(Cc1ccccc1)C(=S)Nc1cccnc1` cannot be ordered by solubility kinetic: > 53.6 µg/mL for the first, > 38.6 µg/mL for the second.

From PubChem BioAssay AID1996
